# Measured values from patent publication US10117819B2, “Composition for hair frizz reduction” (The Procter & Gamble Company, priority 2014, dated 2018).
# Test: Penetration amount of moisture control material inside hair (extraction, HPLC)
# Conditions: compared to corresponding composition without 2-hydroxyethyl urea (XXVII and XXVIII)
# Method: Each hair tress is extracted 3 times with 0.1% TFA (Trifluoroacetic acid) in methanol and the individual extracts are analyzed separately using HPLC method.
smiles,measurement,value
O=C(O)c1ccccc1O [Salicylic acid],Increase of penetration inside hair with 2% of 2-hydroxyethyl urea,14%
